Experimental data published in patent US6395740B1, “Calcitonin mimetics” (ZymoGenetics, Inc., priority 1997, dated 2002).

Tested on: PTH-induced bone resorption in mouse calvaria
Assay: Calvarial assay to determine calcitonin escape
Format: cell-based
Description: Calvaria from 4-day old neonatal CD-1 mice (pregnant mice received from Charles River Laboratories) were trimmed with fine-tipped scissors to leave the parietal regions, including the sagittal suture. These trimmed bones were placed singly per well into 6-well culture cluster plates (Costar) with 1 mL/well of growth medium, Basel Medium (Eagle's with Earle's salts (GIBCO BRL, Gaithersburg, Md.)) containing 4.5 g/L glucose, 0.29 mg/mL L-glutamine, 1 mM sodium pyruvate, 15% heat-inactivated horse serum, antibiotics (penicillin-G 50 μg/mL, streptomycin 50 μg/mL, and neomycin 100 μg/mL) and containing 5 nM parathyroid hormone (PTH) 1-34 (Sigma), and rocked gently (RedRocker™) at 37° C. in a 5% CO2 humidified incubator for 17.5 hours preincubation. The concentration of PTH was chosen to insure maximum resorption. Calvaria designated as controls were pre-incubated in media without PTH.
Following preincubation, medium was removed and replaced with 1 mL/well of growth medium, as above, containing 20 or 30 μg/mL of the calcitonin mimetic 850-0231 in DMSO (final assay concentration of DMSO less than or equal to 1%), and compared with human calcitonin (hCT) tested at 0.5, 1.0, 5.0, […] All control wells contained a final assay concentration of DMSO equal to that present in the calcitonin mimetic treated wells.
Five bones were included in each sample group. Bones were incubated for a total of 98 hours. Time points were taken at 4, 8, 11, 24, 50.5, 72.5 and 98 hours. At each time point the media containing PTH was removed and fresh dilutions of compound in media were added to the calvaria. After the media was removed, total calcium measurements were made using a Nova 7/7+7 Electrolyte Analyzed (Nova Biomedical) according to the manufacturer's specifications. Induction of bone resorption by PTH is seen as an increase in the concentration of calcium in the growth medium due to degradation of the bone matrix.
A second calvaria bone resorption/escape assay was performed as described above with time points at 4, 8, 12, 16, 24, 49 and 73 hours. […] Histology was done on the PTH-treated and the 30 μg/mL calcitonin mimetic-treated calvaria.
A third calvaria bone resorption/escape assay was performed as described above with the following modifications. The calcitonin mimetic was tested at 5, 10 and 20 μg/mL. PTH was used at 10 nM to insure maximal resorption, hCT was tested at 2 nM and 8 nM and sCT was not included. Calvaria were pretreated with PTH for 19.75 hours. BrdU (bromodeoxyuridine, final concentration 10 μM) was added to the growth media for the final 17.5 hours, to identify proliferating cells. The lack of toxicity of 850-0231 will be verified by quartitating the number of proliferating BudU cells in histological sections of the calvaria. Time points were taken at 4, 8, 11, 24.5, 48 and 77 hours. A Novo CRT 10+ electrolyte analyzer (Nova Biomedical) was used to analyze the time point samples.
At the final time point, visual observations were made and photos taken to note the extent of resorption, and migration from the calvarial cells as a measure of toxicity. Again, human calcitonin lost its inhibitory effect between hours 11 and 24 (Table 5). The calvaria treated with the mimetic at 5 and 10 μg/mL also lost inhibitory effect between 11 and 24 hours.

COc1cc(CN2CCN(C(=O)Nc3cccc(C(F)(F)F)c3)CC2)ccc1O [Compound 850-0231]
escape / continued inhibition of resorption (first assay, PTH 5 nM, 30 μg/mL): did not undergo this escape and continued to inhibit resorption throughout the 98th, hour
Cumulative Total Calcium (first assay, PTH 5 nM, 850-0231 30 μg/mL, 4 hours): 0.16 mg %
Cumulative Total Calcium (first assay, PTH 5 nM, 850-0231 30 μg/mL, 8 hours): 0.28 mg %
Cumulative Total Calcium (first assay, PTH 5 nM, 850-0231 30 μg/mL, 11 hours): 0.36 mg %
Cumulative Total Calcium (first assay, PTH 5 nM, 850-0231 30 μg/mL, 24 hours): 0.48 mg %
Cumulative Total Calcium (first assay, PTH 5 nM, 850-0231 30 μg/mL, 50.5 hours): 0.32 mg %
Cumulative Total Calcium (first assay, PTH 5 nM, 850-0231 30 μg/mL, 72.5 hours): 0.12 mg %
Cumulative Total Calcium (first assay, PTH 5 nM, 850-0231 30 μg/mL, 98 hours): −0.18 mg %
toxicity judged by number of cells migrated from calvaria (first assay, final time point): not toxic to the cells
visual observation of the calvaria (resorption) (first assay, final time point (98 hours)): almost identical in appearance to the untreated calavaria
histology of treated calvaria (integrity, toxicity) (second assay, 30 μg/mL): intact and showed minimal signs of toxicity
continued inhibition of resorption (second assay, PTH 5 nM): able to continue inhibition of resorption throughout the 73rd hour
Cumulative Total Calcium (second assay, PTH 5 nM, 850-0231 30 μg/mL, 4 hours): 0.40 mg %
Cumulative Total Calcium (second assay, PTH 5 nM, 850-0231 30 μg/mL, 8 hours): 0.70 mg %
Cumulative Total Calcium (second assay, PTH 5 nM, 850-0231 30 μg/mL, 12 hours): 0.88 mg %
Cumulative Total Calcium (second assay, PTH 5 nM, 850-0231 30 μg/mL, 16 hours): 1.14 mg %
Cumulative Total Calcium (second assay, PTH 5 nM, 850-0231 30 μg/mL, 24 hours): 1.04 mg %
Cumulative Total Calcium (second assay, PTH 5 nM, 850-0231 30 μg/mL, 49 hours): 0.86 mg %
Cumulative Total Calcium (second assay, PTH 5 nM, 850-0231 30 μg/mL, 73 hours): 0.56 mg %
inhibition of resorption (third assay, PTH 10 nM, 20 μg/mL): significantly inhibited at all time points
Cumulative Total Calcium (third assay, PTH 10 nM, 850-0231 5 μg/mL, 4 hours): 0.47 mg %
Cumulative Total Calcium (third assay, PTH 10 nM, 850-0231 5 μg/mL, 8 hours): 1.08 mg %
Cumulative Total Calcium (third assay, PTH 10 nM, 850-0231 5 μg/mL, 11 hours): 1.49 mg %
Cumulative Total Calcium (third assay, PTH 10 nM, 850-0231 5 μg/mL, 24.5 hours): 3.73 mg %
Cumulative Total Calcium (third assay, PTH 10 nM, 850-0231 5 μg/mL, 48 hours): 7.54 mg %
Cumulative Total Calcium (third assay, PTH 10 nM, 850-0231 5 μg/mL, 77 hours): 11.83 mg %
Cumulative Total Calcium (third assay, PTH 10 nM, 850-0231 10 μg/mL, 4 hours): 0.41 mg %
Cumulative Total Calcium (third assay, PTH 10 nM, 850-0231 10 μg/mL, 8 hours): 0.87 mg %
Cumulative Total Calcium (third assay, PTH 10 nM, 850-0231 10 μg/mL, 11 hours): 1.30 mg %
Cumulative Total Calcium (third assay, PTH 10 nM, 850-0231 10 μg/mL, 24.5 hours): 3.05 mg %
Cumulative Total Calcium (third assay, PTH 10 nM, 850-0231 10 μg/mL, 48 hours): 5.96 mg %
Cumulative Total Calcium (third assay, PTH 10 nM, 850-0231 10 μg/mL, 77 hours): 8.87 mg %
Cumulative Total Calcium (third assay, PTH 10 nM, 850-0231 20 μg/mL, 4 hours): 0.35 mg %
Cumulative Total Calcium (third assay, PTH 10 nM, 850-0231 20 μg/mL, 8 hours): 0.70 mg %
Cumulative Total Calcium (third assay, PTH 10 nM, 850-0231 20 μg/mL, 11 hours): 0.94 mg %
Cumulative Total Calcium (third assay, PTH 10 nM, 850-0231 20 μg/mL, 24.5 hours): 2.23 mg %
Cumulative Total Calcium (third assay, PTH 10 nM, 850-0231 20 μg/mL, 48 hours): 3.20 mg %
Cumulative Total Calcium (third assay, PTH 10 nM, 850-0231 20 μg/mL, 77 hours): 3.78 mg %
